Assay results taken from patent publication EP4656640A1, “IRAK4 DEGRADER AND USE THEREOF” (Shanghai Qilu Pharmaceutical Research and Development …, priority 2023, dated 2024).

Experiments:
[1] = Mouse pharmacokinetics, oral (Experiment 2); type: in vivo, C57BL/6 mice; conditions: mice, PO 100 mg/kg, free access to food, plasma
Protocol: Two male C57BL/6 mice were allowed free access to food and water. The dose for PO administration was 100 mg/kg, with an administration volume of 10 mL/kg.
After administration, blood samples (0.025 mL) were collected from the mice via venipuncture at 0.083, 0.25, 0.5, 1, 2, 4, 8, and 24 hours. The samples were placed in EDTA-K2 tubes and centrifuged at 2000 g for 5 minutes at 4°C. The plasma was separated and stored at -70°C.
• 1) 5 µL of plasma sample was added to 100 µL of acetonitrile for precipitation. After mixing, the mixture was centrifuged at 5800 rmp for 10 minutes. • 2) The processed supernatant solution was taken for LCMS/MS analysis to determine the concentration of the test compound.
• LC-MS/MS instrument: LCMS/MS-45 (Triple Quad 6500+) • Chromatographic column: Waters BEH C18 (2.1 × 50 mm, 1.7 µm) • Mobile phase: Solution A was H2O-0.025% FA-1 mM NH4OAc, and Solution B was MeOH-0.025% FA-1 mM NH4OAc. • Flow rate: 0.6 mL/min • Elution time: Gradient elution for 0-2.5 minutes.
The main pharmacokinetic parameters were calculated using WinNonlin 8.2. […] Table 7. Pharmacokinetic parameters of some compounds of the present disclosure administered orally to mice

[2] = Mouse pharmacokinetics, oral (Experiment 1); type: in vivo, C57BL/6 mice; conditions: mice, PO 100 mg/kg, fasted overnight, plasma
Protocol: C57BL/6 mice were used as test animals to study the pharmacokinetic behavior of the compounds of the present disclosure in mouse plasma after oral administration at a dose of 100 mg/kg.
C57BL/6, male, transferred from the animal repository of the laboratory institution (999M-018).
Three male C57BL/6 mice were fasted overnight (10-14 hours) with free access to water one day before administration. The mice were fed 4 hours after administration. The dose for PO administration was 100 mg/kg, with an administration volume of 20 mL/kg.
After administration, blood samples (0.03 mL) were collected from the mice via venipuncture at 0.083, 0.25, 0.5, 1, 2, 4, 8, and 24 hours. The samples were placed in EDTA-K2 tubes and centrifuged at 6800 rpm for 5 minutes at 2-8°C. The plasma was separated and stored at -80°C.
• 1) 10 µL of plasma sample was added to 200 µL of methanol for precipitation. After mixing, the mixture was centrifuged at 18000 g for 10 minutes. • 2) The processed supernatant solution was taken for LC/MS/MS analysis to determine the concentration of the test compound.
• Liquid phase conditions: Shimadzu LC-30AD pump • Mass spectrometry conditions: AB Sciex API 5500 mass spectrometer • Chromatographic column: Phenomenex Kinetex 2.6 µm C18 50 3.0 mm • Mobile phase: Solution A was 0.1% formic acid in water, and solution B was 0.1% formic acid in acetonitrile • Flow rate: 0.6 mL/min • Elution time: Gradient elution for 0-1.6 minutes.
The main pharmacokinetic parameters were calculated using WinNonlin 8.0.

inflammatory factors = experiment: Inflammatory factors in plasma and peritoneal lavage fluid, IL-33-induced acute inflammation in mice (ELISA); type: in vivo, C57BL/6J mice; conditions: FIG. 1
Protocol: IL-33, a member of the IL-1 cytokine family, is the ligand for IL-1 receptor-like 1 or ST2. […] The effect of the compounds on inflammation in the IL-1R signaling pathway was investigated using an acute inflammatory model in mice induced by intraperitoneal injection of IL-33.
Preparation of IL-33 inducer: The mouse recombinant IL-33 powder was prepared as a 1 µg/µL stock solution. When using, 40 µL of the 1 µg/µL IL-33 solution was added to 3960 µL of PBS, mixed well by inversion, to obtain 4 mL of IL-33 solution with a concentration of 1 µg/100 µL, which was prepared freshly before use.

Cn1c(=O)n(C2CCC(=O)NC2=O)c2cccc(C#CCOC34CCC(CN5CCC6(CC5)CC(n5cc(NC(=O)c7cnn8ccc(N9C[C@H]%10C[C@@H]9CO%10)nc78)c(C(F)F)n5)C6)(CC3)CC4)c21 (some centres unmarked) [Example 52] showed an AUC(0-t) at 24 h [1] of 40100 ng·h/mL, a Cmax [1] of 2200 ng/mL and a Tmax [1] of 8 h.
Molecule Cn1c(=O)n(C2CCC(=O)NC2=O)c2cccc(C#CCCN3CCC4(CC3)CC(n3cc(NC(=O)c5cnn6ccc(N7C[C@H]8C[C@@H]7CO8)nc56)c(C(F)F)n3)C4)c21 (some centres unmarked) [Example 22] has an AUC(0-inf) [2] of 18400 ng·h/mL, an AUC(0-t) at 24 h [2] of 17600 ng·h/mL and a Cmax [2] of 1400 ng/mL. The MRT inf [2] was 8 h, the Tmax [2] was 1.7 h and the half-life [2] was 5.4 h. The “anti-inflammatory effect compared with KT474” value (inflammatory factors; at comparable drug concentrations in plasma) was “superior” and the “inflammatory factors in mouse plasma and peritoneal lavage fluid” value (inflammatory factors; mice, PO 15, 50 and 150 mg/kg, IL-33 induction) was “concentration-dependent reduction”.
